Assay results: US7943748B2, “Glucitol derivative, prodrug thereof and salt thereof, and therapeutic agent containing the same for diabetes” (Chugai Seiyaku Kabushiki Kaisha, priority 2004, dated 2011)

Assays:
human SGLT2 = biological target: T1, human SGLT2 (Homo sapiens, UniProt P31639); test: Inhibition of methyl-α-D-glucopyranoside intake in human SGLT2 stable expression CHO cells; type: cell-based; settings: methyl-α-D-(U-14C)glucopyranoside intake, 37° C., 45 minutes
T1 construct: expressed in transfected cells; host or cells: CHO-K1
T1 sequence (P31639 1-672): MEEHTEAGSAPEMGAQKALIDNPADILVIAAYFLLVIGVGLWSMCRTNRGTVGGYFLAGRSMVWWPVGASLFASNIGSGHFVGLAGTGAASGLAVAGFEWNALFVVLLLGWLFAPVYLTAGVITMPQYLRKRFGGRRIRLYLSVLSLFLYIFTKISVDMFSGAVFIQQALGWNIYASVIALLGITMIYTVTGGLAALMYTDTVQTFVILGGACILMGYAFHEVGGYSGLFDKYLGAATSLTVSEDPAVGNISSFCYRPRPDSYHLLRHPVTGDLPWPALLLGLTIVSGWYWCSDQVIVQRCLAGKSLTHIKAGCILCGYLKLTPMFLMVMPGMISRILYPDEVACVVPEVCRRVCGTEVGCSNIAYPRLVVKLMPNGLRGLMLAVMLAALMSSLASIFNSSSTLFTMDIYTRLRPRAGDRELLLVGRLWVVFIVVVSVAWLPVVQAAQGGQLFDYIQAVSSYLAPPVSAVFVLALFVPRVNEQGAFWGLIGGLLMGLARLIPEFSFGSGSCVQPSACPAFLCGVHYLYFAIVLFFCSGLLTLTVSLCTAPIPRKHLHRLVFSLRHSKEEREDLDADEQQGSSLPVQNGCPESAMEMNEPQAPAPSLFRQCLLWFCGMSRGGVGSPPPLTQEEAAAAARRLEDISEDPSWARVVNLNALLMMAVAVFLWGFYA
Protocol: Test for Confirming Action of Inhibiting Human Na^+-Glucose Co-Transporters (SGLT1 and SGLT2)
(2) Preparation of Human SGLT2 Expression Vector
PCR was performed by KOD+DNA polymerase by taking a human kidney-derived cDNA library (a product of Clontech) as a template with the use of a synthesized DNA primer to amplify human SGLT2 cDNA. […] From the proliferated E. coli, a plasmid was purified according to the usual way. By taking this plasmid as a template, PCR was performed by KOD+DNA polymerase with the use of a synthetic DNA primer into which restriction enzyme recognition sites had been introduced to amplify human SGLT2 cDNA (a fragment added with Xho I recognition site on the upstream side and a Hind III recognition site on the downstream side). This amplified fragment was subjected to Xho I and Hind III digestion to connect the digested fragments to their recognition sites of the expression vector pcDNA 3.1(−) with the use of the Rapid DNA Ligation kit. The connected expression vector was introduced into E. coli competent cells (DH5α) and proliferated in an ampicillin-containing LB medium to obtain a human SGLT2 expression vector according to the usual way.
(3) Preparation of Human SGLT1 Stable Expression Cell and Human SGLT2 Stable Expression Cell […]

[1] = Test for determining blood half-life in rat; type: in vivo; settings: iv; SD male rat, intravenously administered, dosage 10 mg/kg, plasma, LC-MS/MS, non-compartmental analysis, half-life in the final layer
Protocol: Test for Determining Blood Half-Life in Rat
A test compound was intravenously administered to a SD male rat (8-weeks old, Japan SLC) and the blood was collected 2 minutes, 5 minutes, 15 minutes, 30 minutes, 1 hour, 2 hours, 4 hours, 6 hours and 8 hours after administration, respectively. The obtained blood was centrifuged to obtain plasma. The plasma sample (0.01 mL) and water (0.4 mL) were added to a tube added with an internal standard substance of phenyloin (250 ng), and diethyl ether (2 mL) was added thereto and the obtained solution was stirred for five minutes, and then centrifuged for 10 minutes and an organic layer was recovered and subjected to nitrogen dryness, and a mobile phase was added to the obtained solid to dissolve it and the resulting solution was taken as a sample for determination.
The sample for determination was injected into LC-MS/MS and determined under the following conditions. • Column: ODS (2.0×150 mm) • Mobile Phase Acetonitrile/10 mM ammonium acetate=4/6 (v/v) • Flow Rate: 0.2 mL/min • Amount of Sample Injected: 10 μL • Mass Analysis: ESI (+)
The plasma concentration obtained by the LC-MS/MS method was subjected to non-compartmental analysis with the use of the WinNonlin standard made by Pharsight Corporation to calculate pharmacokinetic parameters.

SMILES | IC50 (human SGLT2) | half-life [1]
OC[C@H]1O[C@@H](c2cc(Cc3cc4ccccc4s3)cc3ccccc23)[C@H](O)[C@@H](O)[C@@H]1O [Example 1, (2S,3R,4R,5S,6R)-2-[3-(Benzo[b]thiophen-2-ylmethyl)-naphthalen-1-yl]-6-hydroxymethyl-tetrahydropyran-3,4,5-triol] | 18 nM | 493 min
Cc1ccc(Cc2cc([C@@H]3O[C@H](CO)[C@@H](O)[C@H](O)[C@H]3O)c3ccccc3c2)s1 [Example 8, (2R,3S,4R,5R,6S)-2-hydroxymethyl-6-[3-(5-methylthiophen-2-ylmethyl)naphthalen-1-yl]tetrahydropyran-3,4,5-triol] | 18 nM | 
